The text below walks through data of US20090111801A1, “SUBSTITUTED PYRAZINONE DERIVATIVES FOR USE AS A MEDICINE” (Janssen Pharmaceutica N.V., priority 2006, published 2009).

In one experiment the target is T1, hα2A receptor (Homo sapiens, UniProt P08913).
T1 construct: expressed in transfected cells; host or cells: CHO cells, stably transfected; membrane preparation
T1 sequence (P08913 1-465): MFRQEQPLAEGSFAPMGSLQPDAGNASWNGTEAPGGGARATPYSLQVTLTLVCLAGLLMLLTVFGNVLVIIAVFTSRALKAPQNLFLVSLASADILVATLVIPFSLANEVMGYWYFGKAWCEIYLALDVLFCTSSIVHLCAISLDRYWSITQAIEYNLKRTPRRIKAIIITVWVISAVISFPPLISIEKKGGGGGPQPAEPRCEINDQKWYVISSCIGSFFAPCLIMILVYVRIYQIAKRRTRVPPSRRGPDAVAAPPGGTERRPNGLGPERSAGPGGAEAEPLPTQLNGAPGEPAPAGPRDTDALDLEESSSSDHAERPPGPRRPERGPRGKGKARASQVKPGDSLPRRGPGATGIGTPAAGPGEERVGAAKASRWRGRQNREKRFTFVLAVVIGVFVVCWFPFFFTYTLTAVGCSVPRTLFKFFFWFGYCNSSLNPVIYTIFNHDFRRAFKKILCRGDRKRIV
In words: Radioligand binding experiment for α2A-adrenoceptor ([3H]raulwolscine, CHO cell membranes). Particulars: [3H]raulwolscine binding; for IC50: read-out: h-α2A pIC50 (converted).

The target of a further experiment is T2, hα2C receptor (Homo sapiens, UniProt P18825).
T2 construct: expressed in transfected cells; host or cells: CHO cells, stably transfected; membrane preparation
T2 sequence (P18825 1-462): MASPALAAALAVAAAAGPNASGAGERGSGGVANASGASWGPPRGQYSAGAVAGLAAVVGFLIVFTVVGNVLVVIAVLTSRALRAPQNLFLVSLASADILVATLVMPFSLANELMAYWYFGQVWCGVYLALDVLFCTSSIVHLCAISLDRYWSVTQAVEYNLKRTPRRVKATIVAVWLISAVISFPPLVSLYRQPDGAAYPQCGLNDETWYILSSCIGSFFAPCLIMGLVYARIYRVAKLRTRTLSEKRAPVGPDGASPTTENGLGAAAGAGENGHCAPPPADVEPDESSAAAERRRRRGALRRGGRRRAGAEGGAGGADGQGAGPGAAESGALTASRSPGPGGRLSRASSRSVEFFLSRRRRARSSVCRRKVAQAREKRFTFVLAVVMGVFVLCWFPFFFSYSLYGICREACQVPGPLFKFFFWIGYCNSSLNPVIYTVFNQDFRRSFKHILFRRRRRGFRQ
Nature of the experiment: Radioligand binding experiment for α2C-adrenoceptor ([3H]raulwolscine, CHO cell membranes). Particulars: [3H]raulwolscine binding; for IC50: read-out: h-α2C pIC50 (converted).

A further experiment has as its target T3, 5HT-Transporter (Homo sapiens, UniProt P31645).
T3 construct: Human platelet membranes (Oceanix Biosciences Corporation, Hanover, Md., USA) were thawed; tissue Oceanix Biosciences Corporation, Hanover, Md., USA; host or cells: human platelet membranes
Nature of the experiment: Binding experiment for the 5HT-transporter ([3H]paroxetine, human platelet membranes). Particulars: [3H]paroxetine 0.5 nM; for IC50: read-out: h-5HTT pIC50 (converted). The procedure, abridged: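 Filter-bound radioactivity from human platelet membranes incubated with [3H]paroxetine and test compound (buffer Tris-HCl 50 mM, 120 mM NaCl, 5 mM KCl) was counted.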

T3 sequence (P31645 whole entry): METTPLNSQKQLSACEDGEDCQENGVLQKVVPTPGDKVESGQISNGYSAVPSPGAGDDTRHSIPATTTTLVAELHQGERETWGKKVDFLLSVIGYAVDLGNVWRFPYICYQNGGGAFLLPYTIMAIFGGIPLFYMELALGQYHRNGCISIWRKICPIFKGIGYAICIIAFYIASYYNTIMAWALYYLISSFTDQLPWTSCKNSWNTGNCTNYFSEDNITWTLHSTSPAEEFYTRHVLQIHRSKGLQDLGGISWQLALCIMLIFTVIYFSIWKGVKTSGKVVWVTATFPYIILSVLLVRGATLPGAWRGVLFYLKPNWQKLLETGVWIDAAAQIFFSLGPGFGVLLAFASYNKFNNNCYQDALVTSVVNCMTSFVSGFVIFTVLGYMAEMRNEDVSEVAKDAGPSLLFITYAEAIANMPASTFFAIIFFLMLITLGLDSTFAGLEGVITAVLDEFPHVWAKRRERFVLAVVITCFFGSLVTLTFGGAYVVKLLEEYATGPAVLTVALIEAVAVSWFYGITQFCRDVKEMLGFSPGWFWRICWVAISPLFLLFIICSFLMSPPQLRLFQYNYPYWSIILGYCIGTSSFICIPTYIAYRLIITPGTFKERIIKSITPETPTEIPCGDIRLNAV

`C/C(=C\c1ccccc1)CN1CCC(Nc2nccn(Cc3ccccn3)c2=O)CC1` [6-13]: the IC50 is 200 nM on hα2A receptor, 31.6 nM on hα2C receptor and 3980 nM at 5HT-Transporter.
Regarding `C/C(=C\c1ccccc1)CN1CCC(Nc2nccn(CC(=O)Nc3ccccc3)c2=O)CC1` [1-40], the IC50 on hα2A receptor is 50.1 nM; on hα2C receptor, 3.16 nM; at 5HT-Transporter it was 1000 nM.
On to `C/C(=C\c1ccccc1)CN1CCC(Nc2nccn(CC3CCCCO3)c2=O)CC1` (stereo not drawn) [6-1], for which the IC50 on hα2A receptor was 126 nM; on hα2C receptor, 20 nM; on 5HT-Transporter, 1000 nM.
With `C/C(=C\c1ccccc1)CN1CCN(c2ncc[nH]c2=O)CC1` [14-1], the IC50 on hα2A receptor is 158 nM; on hα2C receptor, 39.8 nM; at 5HT-Transporter it was 3980 nM.
Turning to `C/C(=C\c1ccccc1)CN1CCC(Nc2nccn(-c3ccc(C(=O)O)cc3)c2=O)CC1` [3-4], the results for the IC50 on hα2A receptor, on hα2C receptor and at 5HT-Transporter were 631 nM, 79.4 nM and greater than 10000 nM, respectively.
On to `COC(=O)C1CCN(C(=O)c2ccc(-n3ccnc(NC4CCN(C/C(C)=C/c5ccccc5)CC4)c3=O)cc2)CC1` [2-16], for which the IC50 was 50.1 nM on hα2A receptor, 5.01 nM at hα2C receptor and 501 nM on 5HT-Transporter.
In the case of `COCCCn1ccnc(N2CCN(C/C(C)=C/c3ccccc3)CC2)c1=O` [10-1], the IC50 at hα2A receptor was 316 nM; at hα2C receptor it was 79.4 nM; at 5HT-Transporter it was 7940 nM.
Turning to `C/C(=C\c1ccccc1)CN1CCC(Nc2nccn(CCc3ccccc3)c2=O)CC1` [5-27], the figures for the IC50 at hα2A receptor, on hα2C receptor and on 5HT-Transporter were 100 nM, 15.8 nM and 398 nM, respectively.
`C/C(=C\c1ccccc1)CN1CCC(Nc2nccn(CCn3cccc3)c2=O)CC1` [2-47]: the IC50 was 200 nM on hα2A receptor, 31.6 nM at hα2C receptor and 3980 nM at 5HT-Transporter.
As to `CCCN(C)C(=O)Cn1ccnc(NC2CCN(C/C(C)=C/c3ccccc3)CC2)c1=O` [1-19], the IC50 on hα2A receptor was 126 nM; on hα2C receptor, 10 nM; on 5HT-Transporter it was 1580 nM.
On to `COC(=O)CCNCc1cccc(-n2ccnc(NC3CCN(C/C(C)=C/c4ccccc4)CC3)c2=O)c1` [1-95], for which the “h-α2A pIC50” value at hα2A receptor is 7.6. On hα2C receptor, the “h-α2C pIC50” value is reported as 8.9. Further, the “h-5HTT pIC50” value on 5HT-Transporter is on record as 5.9.
For `COCCNC(=O)c1ccc(-n2ccnc(NC3CCN(C/C(C)=C/c4ccccc4)CC3)c2=O)cc1` [1-22], the IC50 on hα2A receptor is 100 nM; on hα2C receptor, 12.6 nM; at 5HT-Transporter it was 631 nM.
The matching figures for `C/C(=C\c1ccccc1)CN1CCC(Nc2nccn(-c3ccc(CN4CCOCC4)cc3)c2=O)CC1` [2-44]: 50.1 nM, 6.31 nM and 2000 nM.
On to `C/C(=C\c1ccccc1)CN1CCC(Nc2nccn(CC(=O)N(Cc3ccccc3)c3ccccc3)c2=O)CC1` [1-69], for which the IC50 is 158 nM on hα2A receptor, 39.8 nM at hα2C receptor and 794 nM at 5HT-Transporter.
The matching figures for `C/C(=C\c1ccccc1)CN1CCC(Nc2nccn(-c3ccc(C(=O)N4CCN(Cc5ccccc5)CC4)cc3)c2=O)CC1` [2-32]: 200 nM, 12.6 nM and 1260 nM.
The matching figures for `CCOC(=O)CCCCn1ccnc(NC2CCN(C/C(C)=C/c3ccccc3)CC2)c1=O` [3-17]: 126 nM, 15.8 nM and 794 nM.
Consider `C/C(=C\c1ccccc1)CN1CCC(Nc2nccn(Cc3ccccc3)c2=O)CC1` [5-8], for which the results for the IC50 on hα2A receptor, at hα2C receptor and at 5HT-Transporter were 200 nM, 50.1 nM and 1580 nM, respectively.
With `C/C(=C\c1ccccc1)CN1CCC(Nc2nccn(-c3ccc(N)cc3)c2=O)CC1` [1-5], the IC50 at hα2A receptor was 100 nM; at hα2C receptor, 6.31 nM; on 5HT-Transporter it was 2000 nM.
`CC(=O)Cn1ccnc(NC2CCN(C/C=C/c3ccccc3)CC2)c1=O` [16-24]: the figures for the IC50 on hα2A receptor, on hα2C receptor and on 5HT-Transporter were 1000 nM, 316 nM and greater than 10000 nM, respectively.
On the same counts, the results for `C/C(=C\c1ccccc1)CN1CCC(Nc2nccn(-c3ccc(CNCCN4CCCC4)cc3)c2=O)CC1` [1-131] are 25.1 nM, 3.16 nM and 158 nM.
`COCCCNC(=O)Cn1ccnc(NC2CCN(C/C(C)=C/c3ccccc3)CC2)c1=O` [1-23]: the IC50 at hα2A receptor is 200 nM; at hα2C receptor, 6.31 nM; on 5HT-Transporter, 2510 nM.
As for `CCCn1ccnc(N2CCN(C/C(C)=C/c3ccccc3)CC2)c1=O` [14-2], the figures for the IC50 at hα2A receptor, at hα2C receptor and at 5HT-Transporter were 126 nM, 50.1 nM and 6310 nM, respectively.
With `C/C(=C\c1ccccc1)CN1CCC(Nc2nccn(-c3cccc(CNCCN4CCOCC4)c3)c2=O)CC1` [1-149], the “h-α2A pIC50” value at hα2A receptor was found to be 7.6. Besides, the “h-α2C pIC50” value at hα2C receptor turned out to be 8.4. Also, the “h-5HTT pIC50” value at 5HT-Transporter is 5.5.
`COCCOCCn1ccnc(N(C)C2CCN(C/C(C)=C/c3ccccc3)CC2)c1=O` [15-5]: the IC50 on hα2A receptor was 126 nM; at hα2C receptor, 39.8 nM; at 5HT-Transporter, 2000 nM.
With `CC(=O)NCc1ccc(Cn2ccnc(NC3CCN(C/C(C)=C/c4ccccc4)CC3)c2=O)cc1` [1-30], the IC50 is 158 nM at hα2A receptor, 31.6 nM at hα2C receptor and 1260 nM at 5HT-Transporter.
With `C/C(=C\c1ccccc1)CN1CCC(Nc2nccn(-c3cccc(N4CCOCC4)c3)c2=O)CC1` [2-42], the IC50 on hα2A receptor was 7.94 nM; on hα2C receptor it was 3.16 nM; at 5HT-Transporter, 794 nM.
`C/C(=C\c1ccccc1)CN1CCN(c2nccn(Cc3ccc4ccccc4c3)c2=O)CC1` [12-7]: the IC50 at hα2A receptor was 126 nM; on hα2C receptor it was 126 nM; at 5HT-Transporter, 1000 nM.
On to `C/C(=C\c1ccccc1)CN1CCC(Nc2nccn(-c3ccc(N4CCCCC4)cc3)c2=O)CC1` [2-7], for which the results for the IC50 at hα2A receptor, at hα2C receptor and on 5HT-Transporter were 50.1 nM, 5.01 nM and 1260 nM, respectively.
Consider `CNCCCn1ccnc(NC2CCN(C/C(C)=C/c3ccccc3)CC2)c1=O` [1-8], for which the figures for the IC50 at hα2A receptor, at hα2C receptor and on 5HT-Transporter were 50.1 nM, 3.16 nM and 3980 nM, respectively.
On to `C/C(=C\c1ccccc1)CN1CCC(Nc2nccn(-c3ccc(CN4C(=O)c5ccccc5C4=O)cc3)c2=O)CC1` [2-55], for which the “h-α2A pIC50” value at hα2A receptor is on record as 6.8. The “h-α2C pIC50” value at hα2C receptor is listed as 8.0. The “h-5HTT pIC50” value at 5HT-Transporter is on record as 6.6.
Regarding `C/C(=C\c1ccccc1)CN1CCC(Nc2nccn(-c3ccc(N4CCC(N5CCCC5)CC4)cc3)c2=O)CC1` [2-19], the values for the IC50 on hα2A receptor, on hα2C receptor and at 5HT-Transporter were 50.1 nM, 5.01 nM and 631 nM, respectively.
On the same counts, the results for `C/C(=C\c1ccccc1)CN1CCC(Nc2nccn(-c3ccc(CNCCN(C)C)cc3)c2=O)CC1` [1-105] are 39.8 nM, 5.01 nM and 631 nM.
As for `C/C(=C\c1ccccc1)CN1CCC(Nc2nccn(CCCOc3ccccc3)c2=O)CC1` [3-19], the IC50 was 63.1 nM on hα2A receptor, 20 nM on hα2C receptor and 200 nM at 5HT-Transporter.
Turning to `CCOC(=O)Cn1ccnc(NC2CCN(C/C(C)=C/c3ccccc3)CC2)c1=O` [3-16], the IC50 on hα2A receptor was 126 nM; at hα2C receptor it was 15.8 nM; on 5HT-Transporter, greater than 10000 nM.
The matching figures for `CC(C)(C)OC(=O)NCCCn1ccnc(NC2CCN(C/C=C/c3ccccc3)CC2)c1=O` [16-4]: 398 nM, 39.8 nM and 1260 nM.
In the case of `CCOC(=O)N1CCN(Cc2ccc(-n3ccnc(NC4CCN(C/C(C)=C/c5ccccc5)CC4)c3=O)cc2)CC1` [2-37], the IC50 was 398 nM at hα2A receptor, 31.6 nM on hα2C receptor and 6310 nM on 5HT-Transporter.
The matching figures for `C/C(=C\c1ccccc1)CN1CCC(Nc2nccn(CCCNC(=O)CC3CCCC3)c2=O)CC1` [1-33]: 200 nM, 12.6 nM and 794 nM.
Regarding `C/C(=C\c1ccccc1)CN1CCC(Nc2nccn(CC(=O)N(C)C3CCCCC3)c2=O)CC1` [1-20], the IC50 on hα2A receptor is 79.4 nM; on hα2C receptor, 3.98 nM; on 5HT-Transporter, 1000 nM.
Consider `C/C(=C\c1ccccc1)CN1CCC(Nc2nccn(-c3cccc(NC(=O)CC4CCCC4)c3)c2=O)CC1` [1-34], for which the figures for the IC50 on hα2A receptor, at hα2C receptor and at 5HT-Transporter were 63.1 nM, 20 nM and 631 nM, respectively.
